From patent US20250195684A1, “DELIVERY METHODS USING PLATELETS” (Children's Hospital Medical Center, priority 2022, published 2025)

What was measured:
293T cells = experiment: Screening of anchoring protein HA fusion constructs, PE anti-HA flow cytometry; format: cell-based; settings: live cells, gated on eGFP
Text: FIG. 15A depicts exemplary constructs used for the determination and identification of cell surface targeting ligands, which can be, for example, expressed on platelets to increase cell type specificity. The exemplary constructs involve custom TetOn expression vectors with left/right homologue arms to AAVS1. TetOn allows for conditional expression of targeting ligands or epitopes fused to the N- and C-termini of platelet cell surface markers (e.g. CD41, CD42a, CD61). Downstream cGFP through a P2A linker allows for successful identification of cells expressing the fusion vector. FIG. 15B depicts flow cytometry plots of 293T cells transfected with the exemplary N- or C-terminal fusion vectors depicted in FIG. 15A using CD41, CD42a, and CD61. Live cells were stained with a PE anti-HA fluorescent antibody and gated upon cGFP expression during flow cytometry analysis. PE fluorescence is shown against control (untransfected) 293T cells stained with PE anti-HA (shaded).

HUVECs = experiment: Co-culture of MEG-01-GFP megakaryocyte-derived GFP-positive platelets with HUVECs (protein delivery); format: cell-based, human; settings: 80 μM concentration
Experimental: In addition to nucleic acids such as mRNA, modified platelets were used to deliver protein. MEG-01 megakaryocytes were transduced with pLV-GFP lentivirus to induce expression of GFP (MEG-01-GFP). These megakaryocytes were cultured to produce GFP-positive platelets (FIG. 4A), which were co-cultured with HUVECs.
In a separate experiment, GFP-positive platelets were co-cultured with mCherry-expressing HUVECs.

human iPSC line 1383D6 = experiment: Effect of cytochalasin B on platelet-based mCherry mRNA delivery; format: cell-based; settings: 100 nM or 350 nM
Experimental: The effects of cytochalasin B (CytoB), which is an inhibitor of tunneling nanotubes, on platelet-based mRNA delivery were investigated in the exemplary human iPSC line 1383D6. The cells were plated at a density of 2×10^5 cells/well in a 12 well plate and grown overnight at 37° C. with 5% CO2. Platelets were loaded with 5 μg of mCherry mRNA using Lipofectamine MessengerMax as described herein. The mRNA loaded platelets were further prepared by centrifuging at 1800×g at room temperature for 10 min, washing with EBM, and resuspending in fresh 600 μL culture media. Then, 100 μL of the mRNA loaded platelets (corresponding to 0.8 μg mRNA/well) containing 100 nM or 350 nM CytoB (or without CytoB as control) was added to the cells in a total volume of 1 mL culture media. After 24 hour incubation at 37° C. with 5% CO2, fluorescent images were obtained with a BZ-X810 fluorescence microscope (Keyence) using a TRITC filter. Subsequently, the cells were harvested using 0.25% trypsin-EDTA solution, washed twice with PBS, and centrifuged. The cell pellet was dispersed using PBS containing 3% FBS, stained with LIVE/DEAD Fixable Green Dead Cell Stain Kit (Thermo Fisher Scientific) according to manufacturer's instructions. […] Relative value in mean fluorescence intensity (MFI) was calculated with respect to the control samples without CytoB.

Molecule: C-terminal fusion of CD61 with an HA epitope: TetOn expression construct of platelet surface marker CD61 fused C-terminally to an HA epitope, with P2A eGFP
- exposure of HA epitope on cell surface (293T cells): robust exposure of the HA epitope on the 293T cell surface
- exposure of HA epitope on cell surface (293T cells; listed as C-terminal CD61-HA fusion construct): results in anti-HA fluorescence on the cell surface

Molecule: O=C(N/N=C/c1ccc(O)c(O)c1)c1cc2ccccc2cc1O [dynasore]
- transformation of HUVECs by platelets treated with inhibitor (HUVECs): unable to transform HUVECs

Molecule: C=C1[C@@H](C)[C@H]2[C@H](Cc3ccccc3)NC(=O)[C@]23OC(=O)/C=C/[C@H](O)CCC[C@@H](C)C/C=C/[C@H]3[C@@H]1O [CytoB, cytochalasin B]
- effect on platelet-based mRNA delivery (human iPSC line 1383D6): Prevents Platelet-Based mRNA Delivery
- cell death (MFI of green dead cell stain) (human iPSC line 1383D6; 24 hour): does not cause cell death
